From paper PMC10883716, “Conformational dynamics of adenylate kinase in crystals” (Structural Dynamics, 2024) come the findings set out here.

Test [1] has as its target T1, AKign (adenylate kinase from Methanotorrus igneus) (Methanotorris igneus, UniProt P43408).
T1 construct: gene adkA; full length, residues 1-192; synthetic gene in pET21a, C-terminal His6 tag kept (disordered, unbuilt); E. coli BL21(DE3); homotrimer
The experiment in a line: X-ray crystallography, […] A. It counts as binding. As to conditions: 4 mM Ap5A, 17% PEG 3350, 250 mM sodium malonate, 20 °C; one per protomer, spans AMP and ATP sites.

The target of test [2] is T1, AKign (adenylate kinase from Methanotorrus igneus). Description: X-ray crystallography, […] A. The format is binding. Particulars: 4 mM AMP, 8% PEG 8000, 100 mM magnesium acetate, sodium acetate pH 4.5, 20 °C; two per protomer, in AMP and ATP sites.

T1 sequence (P43408 whole entry, the tested form may be a part): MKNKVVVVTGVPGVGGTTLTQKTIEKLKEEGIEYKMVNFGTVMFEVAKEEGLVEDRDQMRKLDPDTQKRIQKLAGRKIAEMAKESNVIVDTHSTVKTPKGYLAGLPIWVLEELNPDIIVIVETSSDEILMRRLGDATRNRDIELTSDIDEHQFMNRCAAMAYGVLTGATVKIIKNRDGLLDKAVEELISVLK

Regarding `Nc1ncnc2c1ncn2[C@@H]1O[C@H](COP(=O)(O)OP(=O)(O)OP(=O)(O)OP(=O)(O)OP(=O)(O)OC[C@H]2O[C@@H](n3cnc4c(N)ncnc43)[C@H](O)[C@@H]2O)[C@@H](O)[C@H]1O` [Ap5A, P^1,P^5-di(adenosine 5′)-pentaphosphate], the “X-ray crystallography, 2.25 A” value in test [1] is reported as “We also solved the AKign structure with the bound inhibitor, Ap5A”.

Regarding `Nc1ncnc2c1ncn2[C@@H]1O[C@H](COP(=O)(O)O)[C@@H](O)[C@H]1O` [AMP], the “X-ray crystallography, 2.40 A” value in test [2] is given as “AMP-bound AKign structure, which comprises two bound AMP molecules per AKign protomer”.
